Earlier results on two molecules are cited in patent publication US7939522B1, “Dosage formulations for acetylcholinesterase inhibitors” (priority 1999, dated 2011).

Molecules are shown by their SMILES.

The conditions of data set [1]: reported (Thomsen, 1990).
A further data set relates to sleep. The note with it: humans, systemic administration late in the day or at night (Sitaram, 1979, Reimann, 1994).

For the molecule `COc1ccc2c3c1O[C@H]1C[C@@H](O)C=C[C@@]31CCN(C)C2` [galanthamine], in data set [1], the half life is 4.5 to 8 h.

For the molecule `CNC(=O)Oc1ccc2c(c1)[C@]1(C)CCN(C)[C@@H]1N2C` [physostigmine], the effect on sleep result in the data set with sleep is “disturb sleep and produce awakenings”.
